Several values for one entry are separate records, joined by “and”; a condition that tells them apart may be missing. Equal entries are not always repeated.
Tested on: MRSA (ATCC BAA-43)
Assay: MRSA/antimicrobial potentiation, CFU on TSB agar with and without antibiotic after laser (Example XXII, Experiments 1-4)
Format: cell-based, Staphylococcus aureus subsp. aureus
Settings: for CFU/ml / AVG / CFU: agar with 30 μg/ml methicillin; for AVG: mean of plates; for CFU: replicate plates; for Meth Effect: CFU with methicillin / without; for Laser Effect (+Meth) / Laser Effect (+M): both on 30 μg/ml methicillin
Description: Four separate experiments have been performed.
Eight different laser dosages were used to treat a saline-suspension of logarithmically growing MRSA, labeled A1 to H1.
The treated and a control untreated suspension were diluted and plated in triplicate on trypic soy agar with or without 30 μg/ml methicillin After 24 hrs of growth at 37° C. colonies were counted.
CFU (colony forming units) were compared between the plates with and without methicillin for both control (untreated) and treated MRSA.
The treated and a control untreated suspension were diluted and plated in triplicate on trypic soy agar with or without 30 μg/mlmethicillin.
After 24 hrs of growth at 37° C. colonies were counted.
The treated and a control untreated suspension were diluted and plated in pentuplicate on trypic soy agar with or without 30 μg/ml methicillin.

COc1cccc(OC)c1C(=O)N[C@@H]1C(=O)N2[C@@H]1SC(C)(C)[C@@H]2C(=O)O [Methicillin]
CFU/ml (Exp#2 C2 Cont (no laser)): 1.66E+08 CFU/ml
AVG (Exp#2 C2 Cont (no laser)): 55.3 CFU
CFU (Exp#2 C2 Cont (no laser)): 42 CFU and 71 CFU and 53 CFU
Meth Effect (Exp#2 C2 Exp (laser treated)): 0.31
CFU/ml (Exp#2 C2 Exp (laser treated)): 3.80E+07 CFU/ml
AVG (Exp#2 C2 Exp (laser treated)): 12.7 CFU
CFU (Exp#2 C2 Exp (laser treated)): 16 CFU and 12 CFU and 10 CFU
Laser Effect (+Meth) (Exp#2 D2, laser Exp / Cont): 0.04
Meth Effect (Exp#2 D2 Cont (no laser)): 0.61
CFU/ml (Exp#2 D2 Cont (no laser)): 1.56E+08 CFU/ml
AVG (Exp#2 D2 Cont (no laser)): 52 CFU
CFU (Exp#2 D2 Cont (no laser)): 20 CFU and 65 CFU and 71 CFU
Meth Effect (Exp#2 D2 Exp (laser treated)): 0.25
CFU/ml (Exp#2 D2 Exp (laser treated)): 7.00E+06 CFU/ml
AVG (Exp#2 D2 Exp (laser treated)): 2.3 CFU
CFU (Exp#2 D2 Exp (laser treated)): 5 CFU and 1 CFU (2×)
Laser Effect (+Meth) (Exp#2 E2, laser Exp / Cont): 0.04
Meth Effect (Exp#2 E2 Cont (no laser)): 1.04
CFU/ml (Exp#2 E2 Cont (no laser)): 1.87E+08 CFU/ml
AVG (Exp#2 E2 Cont (no laser)): 62.3 CFU
CFU (Exp#2 E2 Cont (no laser)): 68 CFU and 66 CFU and 53 CFU
Meth Effect (Exp#2 E2 Exp (laser treated)): 0.24
CFU/ml (Exp#2 E2 Exp (laser treated)): 8.00E+06 CFU/ml
AVG (Exp#2 E2 Exp (laser treated)): 2.7 CFU
CFU (Exp#2 E2 Exp (laser treated)): 2 CFU (2×) and 4 CFU
Laser Effect (+Meth) (Exp#2 F2, laser Exp / Cont): 0.22
Meth Effect (Exp#2 F2 Cont (no laser)): 0.81
CFU/ml (Exp#2 F2 Cont (no laser)): 2.13E+08 CFU/ml
AVG (Exp#2 F2 Cont (no laser)): 71 CFU
CFU (Exp#2 F2 Cont (no laser)): 62 CFU and 64 CFU and 87 CFU
Meth Effect (Exp#2 F2 Exp (laser treated)): 0.38
CFU/ml (Exp#2 F2 Exp (laser treated)): 4.70E+07 CFU/ml
AVG (Exp#2 F2 Exp (laser treated)): 15.7 CFU
CFU (Exp#2 F2 Exp (laser treated)): 13 CFU and 15 CFU and 19 CFU
Laser Effect (+Meth) (Exp#2 G2, laser Exp / Cont): 0.1
Meth Effect (Exp#2 G2 Cont (no laser)): 1.04
CFU/ml (Exp#2 G2 Cont (no laser)): 2.50E+08 CFU/ml
AVG (Exp#2 G2 Cont (no laser)): 83.3 CFU
CFU (Exp#2 G2 Cont (no laser)): 75 CFU and 92 CFU and 83 CFU
Meth Effect (Exp#2 G2 Exp (laser treated)): 0.3
CFU/ml (Exp#2 G2 Exp (laser treated)): 2.50E+07 CFU/ml
AVG (Exp#2 G2 Exp (laser treated)): 8.3 CFU
CFU (Exp#2 G2 Exp (laser treated)): 10 CFU and 7 CFU and 8 CFU
Laser Effect (+Meth) (Exp#2 H2, laser Exp / Cont): 0.17
Meth Effect (Exp#2 H2 Cont (no laser)): 0.73
CFU/ml (Exp#2 H2 Cont (no laser)): 2.30E+08 CFU/ml
AVG (Exp#2 H2 Cont (no laser)): 76.7 CFU
CFU (Exp#2 H2 Cont (no laser)): 76 CFU and 72 CFU and 82 CFU
Meth Effect (Exp#2 H2 Exp (laser treated)): 0.45
CFU/ml (Exp#2 H2 Exp (laser treated)): 3.80E+07 CFU/ml
AVG (Exp#2 H2 Exp (laser treated)): 12.7 CFU
CFU (Exp#2 H2 Exp (laser treated)): 13 CFU (2×) and 12 CFU
Laser Effect (+M) (Exp#3 A3, laser Exp / Cont): 0.33
Meth Effect (Exp#3 A3 Cont (no laser)): 1.03
CFU/ml (Exp#3 A3 Cont (no laser)): 1.45E+08 CFU/ml
AVG (Exp#3 A3 Cont (no laser)): 48.4 CFU
Meth Effect (Exp#3 A3 Exp (laser treated)): 0.52
CFU/ml (Exp#3 A3 Exp (laser treated)): 4.86E+07 CFU/ml
AVG (Exp#3 A3 Exp (laser treated)): 16.2 CFU
Laser Effect (+M) (Exp#3 B3, laser Exp / Cont): 0.27
Meth Effect (Exp#3 B3 Cont (no laser)): 0.99
CFU/ml (Exp#3 B3 Cont (no laser)): 2.14E+08 CFU/ml
AVG (Exp#3 B3 Cont (no laser)): 71.4 CFU
Meth Effect (Exp#3 B3 Exp (laser treated)): 0.61
CFU/ml (Exp#3 B3 Exp (laser treated)): 5.70E+07 CFU/ml
AVG (Exp#3 B3 Exp (laser treated)): 19 CFU
Laser Effect (+M) (Exp#3 C3, laser Exp / Cont): 0.35
Meth Effect (Exp#3 C3 Cont (no laser)): 1.01
CFU/ml (Exp#3 C3 Cont (no laser)): 1.75E+08 CFU/ml
AVG (Exp#3 C3 Cont (no laser)): 58.4 CFU
Meth Effect (Exp#3 C3 Exp (laser treated)): 0.53
CFU/ml (Exp#3 C3 Exp (laser treated)): 6.06E+07 CFU/ml
AVG (Exp#3 C3 Exp (laser treated)): 20.2 CFU
Laser Effect (+M) (Exp#3 D3, laser Exp / Cont): 0.07
Meth Effect (Exp#3 D3 Cont (no laser)): 1.01
CFU/ml (Exp#3 D3 Cont (no laser)): 1.54E+08 CFU/ml
AVG (Exp#3 D3 Cont (no laser)): 51.2 CFU
Meth Effect (Exp#3 D3 Exp (laser treated)): 0.39
CFU/ml (Exp#3 D3 Exp (laser treated)): 1.08E+07 CFU/ml
AVG (Exp#3 D3 Exp (laser treated)): 3.6 CFU
Laser Effect (+M) (Exp#3 E3, laser Exp / Cont): 0.47
Meth Effect (Exp#3 E3 Cont (no laser)): 0.92
CFU/ml (Exp#3 E3 Cont (no laser)): 1.52E+08 CFU/ml
AVG (Exp#3 E3 Cont (no laser)): 50.6 CFU
Meth Effect (Exp#3 E3 Exp (laser treated)): 0.44
CFU/ml (Exp#3 E3 Exp (laser treated)): 7.08E+07 CFU/ml
AVG (Exp#3 E3 Exp (laser treated)): 23.6 CFU
CFU (Exp#3 E3 Exp (laser treated)): 15 CFU and 24 CFU and 26 CFU and 27 CFU
Laser Effect (+M) (Exp#3 F3, laser Exp / Cont): 0.18
Meth Effect (Exp#3 F3 Cont (no laser)): 0.73
CFU/ml (Exp#3 F3 Cont (no laser)): 1.60E+08 CFU/ml
AVG (Exp#3 F3 Cont (no laser)): 53.2 CFU
Meth Effect (Exp#3 F3 Exp (laser treated)): 0.35
CFU/ml (Exp#3 F3 Exp (laser treated)): 2.94E+07 CFU/ml
AVG (Exp#3 F3 Exp (laser treated)): 9.8 CFU
Laser Effect (+M) (Exp#3 G3, laser Exp / Cont): 0.12
Meth Effect (Exp#3 G3 Cont (no laser)): 1.17
CFU/ml (Exp#3 G3 Cont (no laser)): 2.03E+08 CFU/ml
AVG (Exp#3 G3 Cont (no laser)): 67.6 CFU
Meth Effect (Exp#3 G3 Exp (laser treated)): 0.37
CFU/ml (Exp#3 G3 Exp (laser treated)): 2.52E+07 CFU/ml
AVG (Exp#3 G3 Exp (laser treated)): 8.4 CFU
Laser Effect (+M) (Exp#3 H3, laser Exp / Cont): 0.11
Meth Effect (Exp#3 H3 Cont (no laser)): 1.04
CFU/ml (Exp#3 H3 Cont (no laser)): 2.26E+08 CFU/ml
AVG (Exp#3 H3 Cont (no laser)): 75.2 CFU
Meth Effect (Exp#3 H3 Exp (laser treated)): 0.35
CFU/ml (Exp#3 H3 Exp (laser treated)): 2.52E+07 CFU/ml
AVG (Exp#3 H3 Exp (laser treated)): 8.4 CFU
synergistic effect of NIMELS with antibiotic in growth inhibition of MRSA colonies (FIG. 17): being potentiated by sub-lethal NIMELS dosimetry

— US20110295343A1, “NEAR-INFRARED ELECTROMAGNETIC MODIFICATION OF CELLULAR STEADY-STATE MEMBRANE POTENTIALS” (priority 2008, published 2011)
